One series deals with yeast α-glucosidase. Description: Inhibitory activity against α-glucosidase. The conditions noted are these: yeast enzyme, PNP-G substrate, pH 7.0, 37° C.; read-out: IC50 (concentration necessary for inhibiting the activity of α-glucosidase by 50%). It counts as biochemical.
In series [1] the test system is differentiated myoblast C2C12 cells. Description: Glucose uptake of C2C12 cells, 2-NBDG flow cytometry (FACS). Format: cell-based, mouse. To be noted: treated with HdP for 24 hours, 2-NBDG fluorescence, dose-dependent. The protocol: The mouse-derived myoblast C2C12 cells (ATCC, Manassas, Va., USA) were suspended in DMEM (Dulbecco's Modified Eagle's Media) medium supplemented with 10% FBS and an antibiotic and cultured at 37° C. under a 5% CO2 atmosphere in an incubator. Upon 80% confluency, the C2C12 cells subjected to differentiation in a DMEM medium containing 2% horse serum and a low concentration of glucose for 5 days, with the medium freshly changed every three days. The differentiated cells were serum starved for 12 hours in serum free DMEM containing a low concentration of glucose, washed with PBS, and then reacted for 24 hours with the sample (HdP) in a fresh serum free DMEM.
Glucose uptake of mouse-derived myoblast C2C12 cells was measured using flow cytometry (FACS) according to the (2-(N-(7-nitrobenz-2oxa-1,3-diazol-4-yl)amino)-2-deoxyglucose (2-NBDG) assay method (Cell Death Dis. 2017 Oct. 5. 8 (10):e3078). The cultured cells were incubated with 10 μM 2-NBDG at 37° C. for 24 hours and then analyzed using BD FACS Cantoll (BD Biosciences, NJ, USA), with the fluorescence of 2-NBDG detected in a FITC channel.

In series [2] the test system is zebrafish embryos. Description: HdP toxicity in zebrafish embryo. It counts as in vivo. The conditions noted are these: 1 μg/ml or less HdP, exposed until 168 hours after fertilization. The protocol:
Four days after fertilization, each of the embryos (n=15) was transferred to 12-well plates, each containing 950 μl of an embryo medium (distilled water containing 60 ppm salt) and 50 μl of HdP (0.01, 0.1, 1, and 10 μg/ml) and the viability of zebrafish embryos exposed to HdP for 168 hours after fertilization were measured.

The test system of series [3] is alloxan-treated adult zebrafish. Description: Blood glucose level in alloxan-treated adult zebrafish. It counts as in vivo. The protocol:
Wild-type adult zebrafish were treated for 1 hour with 2 mg/ml alloxan and then for 1 hour with 1% glucose in the absence of insulin. Subsequently, the reaction solution was exchanged with water in which the zebrafish were then left for 1 hour before treatment with HdP, metformin, or BAPTA-AM for 90 min. Thus, the experiment groups included a non-treated group, an alloxan-treated group (control), a group treated with alloxan and HdP (0.3 μg/g body weight), a group treated with alloxan and metformin (5 μg/g body weight), a group treated with alloxan and BAPTA-AM (3 μg/g body weight), and a group treated with alloxan, BAPTA-AM (3 μg/g body weight), and HdP (0.3 μg/g body weight).

For series [4], the system named is zebrafish embryos. Description: Intracellular calcium level in zebrafish embryo using Fluo-4. It counts as in vivo. On the procedure: Intracellular calcium levels of zebrafish embryos were measured using a calcium-sensitive Fluo-4 probe. Embryos were incubated with Fluo-4 at 28.5±1° C. for 30 min before treatment with HdP (0.6, 3, and 6 μg/ml). In order to block the entry of calcium into cells, the embryos were reacted with the calcium chelator BAPTA-AM 0.1 mM for 1 hour before incubation with Fluo-4. The experiment groups included a non-treated group (N), a group treated with Fluo-4 alone (F), a group treated with HdP alone (0.6, 3, and 6 μg/ml), a group treated with Fluo-4 and HdP (0.6, 3, and 6 μg/ml), and a group treated with Fluo-4, BAPTA-AM, and HdP (6 μg/ml).
(A change in cytosolic calcium serves as a functional read-out for many receptors and channels.)

Bounds are passed on as bounds.

Protocol for yeast α-glucosidase: Inhibitory activity against α-glucosidase was evaluated using a yeast enzyme according to the method of Watanabe et al. (Watanabe, Kawabata, Kurihara, & Niki, 1997). In the reaction condition of pH 7.0 and 37° C., 5 mM p-nitrophenyl α-D-glucopyranoside (PNP-G) serving as a substrate was reacted with a dilution of 32 mU/ml enzyme (yeast α-glucosidase, Sigma) in 100 mM phosphate buffer and inhibitory activity was measured using spectrophotometry. The sample was reacted with PNP-G for 5 min and the absorbance of 4-nitrophenol released upon the hydrolysis of PNP-G was read at 405 nm. Subsequently, the same amount of the substrate solution was added and reacted at room temperature for an additional five min., after which the reaction was stopped by adding 0.5 M Na2CO3. A change in absorbance at 405 nm was measured.
Inhibitory activity (%) against α-glucosidase was calculated according to the formula (1-absorbance of sample-added group/absorbance of solvent-added group)×100).
Acabose, which is an oral hypoglycemic agent inhibitory of α-glucosidase, was used as a positive control.

As for `Oc1cc(O)cc(Oc2cc(O)c(Oc3c(O)cc(O)cc3Oc3cc(O)c(Oc4cc(O)cc(O)c4Oc4cc(O)cc(O)c4Oc4cc(O)cc(O)c4Oc4cc(O)c(Oc5c(O)cc(O)cc5Oc5c(O)cc(Oc6c(O)cc(Oc7c(O)cc(Oc8c(O)cc(Oc9c(O)cc(Oc%10c(O)cc(Oc%11c(O)cc(O)cc%11O)cc%10O)cc9O)cc8O)cc7O)cc6O)cc5O)c(O)c4)c(O)c3)c(O)c2)c1` [HdP, hexadecaphlorethol], the IC50 on yeast α-glucosidase worked out at 55 µM. Also, in series [1], the “glucose uptake into differentiated C2C12 cells” value is reported as “significantly increase”. In addition, the “survival rate of zebrafish embryos” value in the series on zebrafish embryos [2] is reported as not below 90%. Further, the blood glucose level entry in series [3] (HdP 0.3 μg/g body weight, 90 min) was “significantly reduced”. In series [3] (HdP 0.3 μg/g with BAPTA-AM 3 μg/g body weight), the “blood glucose level, HdP plus BAPTA-AM versus alloxan plus BAPTA-AM” value is on record as “No significant differences”. Also, the “intracellular Ca2+ level (Fluo-4 phosphorescence) with calcium chelator BAPTA-AM” value in the series with zebrafish embryos [4] (Fluo-4, BAPTA-AM 0.1 mM and HdP 6 μg/ml) is on record as “phosphorescence decrease”. Also, the “intracellular Ca2+ level (Fluo-4 phosphorescence)” value with zebrafish embryos [4] (HdP 0.6, 3 and 6 μg/ml with Fluo-4, versus group treated with Fluo-4 alone) is given as “significant increase”.

As to `CN(C)C(=N)N=C(N)N` [metformin, reference compound], the “blood glucose level (effect compared with HdP)” value in series [3] (metformin 5 μg/g body weight, 90 min) is listed as “similar”.

The values above are taken from patent US10961176B2, “Compound hexadecaphlorethol isolated from Ishige okamurae and use thereof” (Jeju National University Industry-Academic Cooperation …, priority 2018, dated 2021).
